Where two headings read alike, the source gives them in different places.
Key:
[1] = biological target: recombinant human BACE-1 protein (Homo sapiens (Human), UniProt P56817); assay: Measurement of Inhibition of β-Secretase Activity; format: biochemical
Procedure, shortened: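 Recombinant human BACE-1 incubated with compound and Eu-cryptate-labelled biotinylated peptide substrate 3 h at 30° C in 50 mM sodium acetate pH 5.0, 0.008% Triton X-100. Streptavidin-XL665 in KF-containing phosphate buffer pH 7.0 then added, 1 h at 30° C, for time-resolved FRET read-out.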

[2] = fluorescence-quenched peptide substrate 18 nM, BACE-1 7.4 nM, 3 h at 30° C., pH5.0, read-out: IC50 value
[3] = recombinant human BACE-1 protein, 3 h at 30° C., pH5.0, read-out: IC50 value

Chain of recombinant human BACE-1 protein (P56817 46-501): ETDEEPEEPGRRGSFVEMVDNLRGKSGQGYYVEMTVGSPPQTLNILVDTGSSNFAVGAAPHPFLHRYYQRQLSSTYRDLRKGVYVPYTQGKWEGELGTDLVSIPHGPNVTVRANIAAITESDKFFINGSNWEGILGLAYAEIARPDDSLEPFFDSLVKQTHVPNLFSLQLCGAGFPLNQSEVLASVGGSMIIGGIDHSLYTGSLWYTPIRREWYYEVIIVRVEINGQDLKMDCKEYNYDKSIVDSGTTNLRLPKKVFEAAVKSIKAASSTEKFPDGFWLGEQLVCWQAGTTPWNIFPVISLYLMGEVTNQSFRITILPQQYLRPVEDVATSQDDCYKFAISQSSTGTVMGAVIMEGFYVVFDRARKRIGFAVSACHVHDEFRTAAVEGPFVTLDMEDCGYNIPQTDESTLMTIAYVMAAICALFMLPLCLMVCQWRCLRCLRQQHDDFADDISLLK

Row | Compound | melting point | IC50 [1, 2] | IC50 [1, 3] | IC50 [1]
1 | CC1(c2ccc3c(c2)OCCO3)CCSC(N)=N1 (stereo not drawn) [Compound 18] | 181 to 183 °C | < 100 µM |  | 
2 | CC1(c2cccc(NC(=O)c3ccc(C(F)(F)F)cc3)c2)CCSC(N)=N1 (stereo not drawn) [Compound 26] | 182 to 184 °C |  | 1.98 µM | 
3 | CC1(c2ccc3c(c2)NC(=O)CO3)CCSC(N)=N1 (stereo not drawn) [Compound 38] | 240 to 244 °C (dec.) | < 100 µM |  | 
4 | CC1(c2csc3ccccc23)CCSC(N)=N1 (stereo not drawn) [Compound 42] | 187 to 188 °C | < 100 µM |  | 
5 | CC1(c2cccc(OCCOc3ccccc3)c2)CCSC(N)=N1.Cl (stereo not drawn) [Compound 57] | 197 to 198 °C | < 100 µM |  | 
6 | CC1(c2cccc(NC(=O)c3ccc(C(N)=O)cn3)c2)CCSC(N)=N1.Cl (stereo not drawn) [Compound 73] | 266 to 269 °C |  | 0.435 µM | 
7 | Cc1ccc(C2(C)CCSC(N)=N2)cc1 (stereo not drawn) [Compound 85] | 147 to 148 °C | < 100 µM |  | 
8 | CC1(c2cc(F)cc(NC(=O)c3ccc(Cl)cn3)c2)CCSC(N)=N1 (stereo not drawn) [Compound 99] | 221 to 224 °C | < 100 µM |  | 
9 | CC1(c2cccc(OCCOc3ccc(Cl)cc3)c2)CCSC(N)=N1.Cl (stereo not drawn) [Compound 121] | 166 to 167 °C | < 100 µM |  | 
10 | CC1(c2ccc3ccccc3c2)CCNC(N)=N1.O=S(=O)(O)O (stereo not drawn) [Compound 125] | > 300 °C | < 100 µM |  | 
11 | CC1(c2cccc(NC(=O)c3ncc(Cl)cc3Cl)c2)CCSC(N)=N1.Cl (stereo not drawn) [Compound 127] | 280 to 285 °C |  | 0.054 µM | 
12 | COCc1ccc(C(=O)Nc2cccc(C3(C)CCSC(N)=N3)c2)nc1 (stereo not drawn) [Compound 128] | 159 to 163 °C | < 100 µM |  | 
13 | CC1(c2ccc(F)cc2)CCCSC(N)=N1.Cl (stereo not drawn) [Compound 129] | 219 to 222 °C | < 100 µM |  | 
14 | Cc1cc(C(=O)Nc2cccc(C3(C)CCSC(N)=N3)c2)n(C)n1 (stereo not drawn) [Compound 130] | 128 to 131 °C | < 100 µM |  | 
15 | CC(=O)c1ccc(C(=O)Nc2cccc(C3(C)CCSC(N)=N3)c2)nc1 (stereo not drawn) [Compound 139] | 287 to 290 °C | < 100 µM |  | 
16 | CC1(c2cccc(/C=C/c3ccc(Cl)cc3)c2)CCSC(N)=N1.Cl (stereo not drawn) [Compound 161] | 247 to 251 °C |  | 7.7 µM | 
17 | CC1(c2cccc(NC(=O)c3cnccn3)c2)CCSC(N)=N1 (stereo not drawn) [Compound 164] | 91 to 96 °C | < 100 µM |  | 
18 | CC1(c2cc(Br)cc(NC(=O)c3ccc(Cl)cn3)c2)CCSC(N)=N1.Cl (stereo not drawn) [Compound 165] | 246 to 248 °C |  | 0.0394 µM | 
19 | CC1(c2cc(F)cc(NC(=O)c3ccc(C(F)(F)F)cn3)c2)CCSC(N)=N1 (stereo not drawn) [Compound 178] | 224 to 225 °C | < 100 µM |  | 
20 | CC1(c2cc(NC(=O)c3ncc(Cl)cn3)ccc2F)CCSC(N)=N1 (stereo not drawn) [Compound 204] | 205 to 208 °C | < 100 µM |  | 
21 | CC1(c2cccc(C(=O)Nc3ccc(Cl)cn3)c2)CCSC(N)=N1.Cl.Cl (stereo not drawn) [Compound 220] | 191 to 193 °C |  | 1.5 µM | 
22 | CC1(c2cc(NC(=O)c3n[nH]c4ccccc34)ccc2F)CCSC(N)=N1 (stereo not drawn) [Compound 241] | 187 to 190 °C | < 100 µM |  | 

Row | Compound | melting point | IC50 [1, 2] | IC50 [1, 3] | IC50 [1]
23 | COc1cnc(C(=O)Nc2cccc(C3(C)CCSC(N)=N3)c2)cn1 (stereo not drawn) [Compound 243] | 182 to 184 °C | < 100 µM |  | 
24 | CC1(c2cc(C#N)cc(NC(=O)c3ccc(Cl)cn3)c2)CCSC(N)=N1 (stereo not drawn) [Compound 255] | 238 to 239 °C | < 100 µM |  | 
25 | CC1(c2ccc(Oc3ccc(F)cc3)cc2)CCSC(N)=N1 (stereo not drawn) [Compound 267] | 114 to 115 °C | < 100 µM |  | 
26 | CC1(c2cccc(OCCCc3cccnc3)c2)CCSC(N)=N1 (stereo not drawn) [Compound 282] | 146 to 147 °C | < 100 µM |  | 
27 | CN(C)c1cnc(C(=O)Nc2cccc(C3(C)CCSC(N)=N3)c2)cn1 (stereo not drawn) [Compound 302] | 122 to 126 °C | < 100 µM |  | 
28 | Cc1cnc(C(=O)Nc2cccc(C3(C)CCSC(N)=N3)c2)cn1.Cl (stereo not drawn) [Compound 309] | 241 to 244 °C |  | 0.833 µM | 
29 | CC1(c2cccc(NCc3ccccn3)c2)CCSC(N)=N1 (stereo not drawn) [Compound 333] | 154 to 158 °C | < 100 µM |  | 
30 | CC1(c2cccc(Br)c2)CCSC(N)=N1.Cl (stereo not drawn) [Compound 339] | 217 to 218 °C | < 100 µM |  | 
31 | Cc1cnc(C(=O)Nc2ccc(F)c(C3(C)CCSC(N)=N3)c2)cn1 (stereo not drawn) [Compound 359] | 212 to 214 °C | < 100 µM |  | 
32 | CCC1(c2cccc(NC(=O)c3ccc(Cl)cn3)c2)CCSC(N)=N1 (stereo not drawn) [Compound 380] | 181 to 182 °C | < 100 µM |  | 
33 | CC1(c2cc(NC(=O)c3ccc(C(F)(F)F)cn3)ccc2F)CCSC(N)=N1 (stereo not drawn) [Compound 396] | 211 to 213 °C | < 100 µM |  | 
34 | COc1ccc(C(=O)Nc2cccc(C3(C)CCSC(N)=N3)c2)nn1 (stereo not drawn) [Compound 405] | 192 to 194 °C | < 100 µM |  | 
35 | CC(C)Oc1cnc(C(=O)Nc2cccc(C3(C)CCSC(N)=N3)c2)cn1 (stereo not drawn) [Compound 410] | 178 to 182 °C | < 100 µM |  | 
36 | CC1(c2ccc(O)cc2)CCSC(N)=N1.Cl (stereo not drawn) [Compound 413] | 251 to 254 °C | < 100 µM |  | 
37 | CCOC(=O)/C=C/c1cccc(C2(C)CCSC(N)=N2)c1 (stereo not drawn) [Compound 417] | 137 to 139 °C |  | 5 µM | 
38 | Cc1cc(C(=O)Nc2cc(Br)cc(C3(C)CCSC(N)=N3)c2)c(C)o1.Cl (stereo not drawn) [Compound 436] | 254 to 256 °C |  | 0.16 µM | 
39 | Cc1cnc(C(=O)Nc2cccc(C3(C)CCSC(N)=N3)c2)cn1 (stereo not drawn) [Compound 444] | 214 to 215 °C |  |  | < 100 µM
40 | COc1ccc(C(=O)NCc2cccc(C3(C)CCSC(N)=N3)c2)cc1.Cl (stereo not drawn) [Compound 452] | 132 to 134 °C | < 100 µM |  | 
41 | CC1(c2cccc(/C=N/OCc3ccncc3)c2)CCSC(N)=N1 (stereo not drawn) [Compound 456] | 147 to 149 °C | < 100 µM |  | 
42 | COCc1cc(NC(=O)c2ccc(C)cc2)cc(C2(C)CCSC(N)=N2)c1 (stereo not drawn) [Compound 465] | 194.6 °C |  | 3.24 µM | 
43 | CC1(c2ccc(C(=O)Nc3ccccc3)s2)CCSC(N)=N1 (stereo not drawn) [Compound 483] | 224 to 227 °C | < 100 µM |  | 
44 | CC1(c2cccc(NC(=O)c3ccc(C#N)cc3)c2)CCSC(N)=N1 (stereo not drawn) [Compound 498] | 122 to 125 °C |  | 0.93 µM | 

Row | Compound | melting point | IC50 [1, 2] | IC50 [1, 3] | IC50 [1]
45 | CC1(c2ccc(C(=O)Nc3ccc(Cl)cn3)s2)CCSC(N)=N1 (stereo not drawn) [Compound 500] | 181 to 184 °C | < 100 µM |  | 
46 | CC1(c2cccc(CO)c2)CCSC(N)=N1 (stereo not drawn) [Compound 501] | 155 to 156 °C | < 100 µM |  | 
47 | COc1ccc(OCc2cccc(C3(C)CCSC(N)=N3)c2)cc1 (stereo not drawn) [Compound 502] | 137 to 138 °C | < 100 µM |  | 
48 | CC1(c2cccc(/C=C/C(=O)Nc3ccc(Cl)cn3)c2)CCSC(N)=N1.Cl.Cl (stereo not drawn) [Compound 504] | 209 to 219 °C |  | 2.5 µM | 
49 | CC(=O)Nc1cc(Cl)cnc1C(=O)Nc1cccc(C2(C)CCSC(N)=N2)c1 (stereo not drawn) [Compound 511] | 211 to 214 °C | < 100 µM |  | 
50 | CC1(c2cccc(NC(=O)c3ncc(Cl)cn3)c2)CCSC(N)=N1 (stereo not drawn) [Compound 515] | 204 to 206 °C | < 100 µM |  | 
51 | Cc1ccc(C(=O)Nc2cccc(C3(C)CCSC(N)=N3)c2)nc1 (stereo not drawn) [Compound 528] | 173 to 174 °C | < 100 µM |  | 
52 | CC1(c2ccc(F)cc2)CCSC(N)=N1 (stereo not drawn) [Compound 549] | 100 to 101 °C | < 100 µM |  | 
53 | COc1ccc(C2(C)CCSC(N)=N2)cc1F (stereo not drawn) [Compound 551] | 139 to 141 °C | < 100 µM |  | 
54 | CC1(c2cc(Br)cc(NC(=O)c3nc4ccccc4s3)c2)CCSC(N)=N1.Cl (stereo not drawn) [Compound 570] | 186 to 187 °C |  | 0.149 µM | 
55 | CC1(c2cccc(/C=N/OCc3cccnc3)c2)CCSC(N)=N1 (stereo not drawn) [Compound 584] | 152 to 153 °C | < 100 µM |  | 
56 | CC1(c2cc(N)cc(Br)c2)CCSC(N)=N1.Cl.Cl (stereo not drawn) [Compound 588] | 155 to 156 °C | < 100 µM |  | 
57 | COc1ccc(CNc2cccc(C3(C)CCSC(N)=N3)c2)cc1.Cl.Cl (stereo not drawn) [Compound 600] | 178 to 180 °C | < 100 µM |  | 
58 | CC1(c2cccc(/C=N/O)c2)CCSC(N)=N1 (stereo not drawn) [Compound 611] | 200 to 202 °C | < 100 µM |  | 
59 | CC1(c2cccc(NC(=O)c3ccc(Cl)cc3Cl)c2)CCSC(N)=N1 (stereo not drawn) [Compound 625] | 107 to 109 °C |  | 1.29 µM | 
60 | CC1(c2cccc(NC(=O)c3ncc(C(F)(F)F)cc3F)c2)CCSC(N)=N1 (stereo not drawn) [Compound 643] | 155 to 157 °C | < 100 µM |  | 
61 | CC1(c2cccc(CCC(=O)Nc3ccc(Cl)cn3)c2)CCSC(N)=N1.Cl.Cl (stereo not drawn) [Compound 657] | 199 to 203 °C | < 100 µM |  | 
62 | COC(=O)c1cc(C(=O)Nc2cccc(C3(C)CCSC(N)=N3)c2)nn1C (stereo not drawn) [Compound 687] | 164 to 167 °C | < 100 µM |  | 
63 | CCOC(=O)CCc1cccc(C2(C)CCSC(N)=N2)c1.Cl (stereo not drawn) [Compound 720] | 133 to 138 °C | < 100 µM |  | 
64 | CC1(c2cccc(NCc3ccncc3)c2)CCSC(N)=N1 (stereo not drawn) [Compound 728] | 179 to 182 °C | < 100 µM |  | 
65 | Cc1ccccc1Oc1ccc(C2(C)CCSC(N)=N2)cc1 (stereo not drawn) [Compound 729] | 167 to 169 °C | < 100 µM |  | 
66 | Cc1cc(C(=O)Nc2cc(Br)cc(C3(C)CCSC(N)=N3)c2)c(C)o1 (stereo not drawn) [Compound 731] | 91 to 94 °C |  | 0.278 µM | 
